According to patent publication US20250059174A1, “Pharmaceutical Compounds and Compositions as C-Kit Kinase Inhibitors” (Enanta Pharmaceuticals, Inc., priority 2023, published 2025):

What was measured:
M-07e cells = test: M-07e cellular assay (SCF-mediated cell proliferation); type: cell-based; settings: Homo sapiens, 72 hours, CellTiter Glo
Experimental: M-07e cells (Creative Bioarray, CSC-C0249) which endogenously express human c-KIT were used to evaluate the effect of compounds on stem cell factor (SCF)-mediated cell proliferation. M-07e cells were cultured in growth media (RPMI+10% FBS+1% penicillin/streptomycin+10 ng/mL GM-CSF) at 5E5-1.5E6 cells/mL, replenishing media every 3-4 days. 1.5E4 cells were seeded per well in 384 well tissue culture treated plates in 20 μL assay media (RPMI+[…]+1% penicillin/streptomycin) without growth factor stimulation and incubated at 37° C. in a CO2 humidity-controlled incubator. Twenty-four hours later, three-fold serially diluted test compounds in media containing SCF (at the previously determined EC90) were added to the plated M-07e cells and incubated for an additional 72 hours. Cell viability was determined by adding 25 μL CellTiter Glo (Promega) to the cells and the luminescence was measured using a Perkin Elmer Envision plate reader. The EC50 was determined using GraphPad Prism. Percent cell growth was determined after normalizing the curve to the mean RLU high control (no compound control wells) at 100% and the mean RLU low control (no SCF control wells) at 0%.

[1] = biological target: Recombinant human c-KIT kinase (Homo sapiens (Human), UniProt P10721); test: c-KIT kinase chemiluminescence assay (ADP-Glo); type: biochemical; settings: ATP 50 μM
Summary of the method: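 ADP formed by c-KIT on polyEY over 2 h at RT (after 30 min enzyme preincubation; Tris pH 7.5, MgCl2, BSA, DTT buffer) was detected by ADP-Glo luminescence. IC50 and Hill slope were fitted to control-normalized activity across compound concentrations.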

Sequence of Recombinant human c-KIT kinase (P10721 26-976): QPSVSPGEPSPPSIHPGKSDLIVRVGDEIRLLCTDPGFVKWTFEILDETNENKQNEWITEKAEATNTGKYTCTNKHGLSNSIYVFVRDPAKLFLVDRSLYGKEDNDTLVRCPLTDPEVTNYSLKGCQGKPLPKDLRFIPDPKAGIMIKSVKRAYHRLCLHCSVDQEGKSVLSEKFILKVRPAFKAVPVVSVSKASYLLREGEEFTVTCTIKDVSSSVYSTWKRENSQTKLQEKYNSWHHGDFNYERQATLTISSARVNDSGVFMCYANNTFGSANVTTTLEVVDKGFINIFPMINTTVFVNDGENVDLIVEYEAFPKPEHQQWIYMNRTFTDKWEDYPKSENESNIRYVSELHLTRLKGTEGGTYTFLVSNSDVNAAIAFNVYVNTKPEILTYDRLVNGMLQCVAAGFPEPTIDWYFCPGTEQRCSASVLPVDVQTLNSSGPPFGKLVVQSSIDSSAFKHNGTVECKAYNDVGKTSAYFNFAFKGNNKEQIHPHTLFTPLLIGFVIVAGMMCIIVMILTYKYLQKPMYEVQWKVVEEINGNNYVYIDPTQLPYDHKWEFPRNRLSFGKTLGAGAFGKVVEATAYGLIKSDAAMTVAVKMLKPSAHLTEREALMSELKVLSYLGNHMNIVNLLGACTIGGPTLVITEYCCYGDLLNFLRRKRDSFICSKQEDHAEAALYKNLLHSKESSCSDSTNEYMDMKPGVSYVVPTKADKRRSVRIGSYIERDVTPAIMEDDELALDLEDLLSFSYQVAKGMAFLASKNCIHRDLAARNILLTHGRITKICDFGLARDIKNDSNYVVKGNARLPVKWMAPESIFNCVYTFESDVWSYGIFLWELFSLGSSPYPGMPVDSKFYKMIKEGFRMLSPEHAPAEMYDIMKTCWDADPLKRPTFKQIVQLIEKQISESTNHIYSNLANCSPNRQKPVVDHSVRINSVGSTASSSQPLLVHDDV

| SMILES | EC50 (M-07e cells) [nM] | IC50 [1] [nM] |
| --- | --- | --- |
| CC#Cc1ccc2c(C(=O)Nc3cc(-c4noc([C@H]5C[C@@H]5F)n4)ccc3C)cnn2c1 [Example 132-1] | 100 to 1000 | < 100 |
| CC#Cc1ccc2c(C(=O)Nc3cc(-c4noc([C@H]5C[C@@H]5F)n4)c(F)cc3C)cnn2c1 [Example 132-2] | 100 to 1000 | 100 to 1000 |
| Cc1ccc(-c2noc([C@H]3C[C@@H](OC(F)F)C3)n2)cc1NC(=O)c1cnn2cc(-c3cn(C(F)(F)C(=O)O)nn3)ccc12 [Example 132-3] | > 1000 | < 100 |
| Cc1ccc(-c2noc([C@H]3C[C@@H]3F)n2)cc1NC(=O)c1cnn2cc(-c3cn(C(F)(F)C(=O)O)nn3)ccc12 [Example 132-4] | > 1000 | < 100 |
| Cc1ncc(-c2noc([C@H]3C[C@@H]3F)n2)cc1NC(=O)c1cnn2cc(-c3cn(C(F)F)nn3)ccc12 [Example 132-5] | < 100 | 100 to 1000 |
| Cc1ncc(-c2noc([C@H]3C[C@@H](OC(F)(F)F)C3)n2)cc1NC(=O)c1cnn2cc(-c3cn(C(F)F)nn3)ccc12 [Example 132-6] | < 100 | 100 to 1000 |
| Cc1ncc(-c2noc(C3CC(F)(F)C3)n2)cc1NC(=O)c1cnn2cc(-c3cn(C(F)F)nn3)ccc12 [Example 132-7] | 100 to 1000 | 100 to 1000 |
| Cc1ncc(-c2noc([C@H]3C[C@@H](C(F)(F)F)C3)n2)cc1NC(=O)c1cnn2cc(-c3cn(C(F)F)nn3)ccc12 [Example 132-8] | < 100 | < 100 |
| Cc1ncc(-c2noc([C@H]3C[C@@H](OC(F)(F)F)C3)n2)cc1NC(=O)c1cnn2cc(-c3cn(CCO)nn3)ccc12 [Example 132-9] | < 100 | < 100 |
| Cc1ncc(-c2noc([C@H]3C[C@@H](OC(F)(F)F)C3)n2)cc1NC(=O)c1cnn2cc(-c3cn(CC(C)(C)O)nn3)ccc12 [Example 132-10] | < 100 | 100 to 1000 |
| Cc1ncc(-c2noc([C@H]3C[C@@H](OC(F)(F)F)C3)n2)cc1NC(=O)c1cnn2cc(-c3cn(CC4(C)COC4)nn3)ccc12 [Example 132-12] | < 100 | < 100 |
| Cc1ccc(-c2ncc(C3CC3)cn2)cc1NC(=O)c1cnn2cc(-c3cn(C(F)F)nn3)ccc12 [Example 132-13] | < 100 | < 100 |
| Cc1ccc(-c2ncc(C3CC3)cn2)cc1NC(=O)c1cnn2cc(-c3cn(CC(C)(C)O)nn3)ccc12 [Example 132-14] | < 100 | < 100 |
| COC(=O)N1CC(c2nc(-c3ccc(C)c(NC(=O)c4cnn5cc(-c6cn(C(F)F)nn6)ccc45)c3)no2)C1 [Example 132-15] | < 100 | < 100 |
| COC(=O)N1CC(c2nc(-c3cnc(C)c(NC(=O)c4cnn5cc(-c6cn(C(F)F)nn6)ccc45)c3)no2)C1 [Example 132-16] | 100 to 1000 | 100 to 1000 |
| COC(=O)N1CC(c2nc(-c3ccc(Cl)c(NC(=O)c4cnn5cc(-c6cn(C(F)F)nn6)ccc45)c3)no2)C1 [Example 132-17] | < 100 | < 100 |
| Cc1ccc(-c2noc([C@H]3C[C@@H]3F)n2)cc1NC(=O)c1cnn2ccc(-c3nnn(CC(C)(C)O)n3)cc12 [Example 132] | < 100 | < 100 |
| Cc1ccc(-c2noc([C@H]3C[C@@H]3F)n2)cc1NC(=O)c1cnn2ccc(-c3ccn(C(F)F)n3)cc12 [Example 135] | 100 to 1000 | < 100 |
| Cc1ccc(-c2noc([C@H]3C[C@@H]3F)n2)cc1NC(=O)c1cnn2ccc(-c3cnn(C4COC4)c3)cc12 [Example 136] | < 100 | < 100 |
| Cc1ccc(-c2noc([C@H]3C[C@@H]3F)n2)cc1NC(=O)c1cnn2ccc(-c3cnn(CCO)c3)cc12 [Example 138] | < 100 | < 100 |
| Cc1ccc(-c2noc([C@H]3C[C@@H]3F)n2)cc1NC(=O)c1cnn2ccc(-c3cnn(C(C)(C)CO)c3)cc12 [Example 140] | < 100 | < 100 |
| Cc1ccc(-c2noc([C@H]3C[C@@H]3F)n2)cc1NC(=O)c1cnn2ccc(-c3cnn(CC(C)(C)O)c3)cc12 [Example 142] | < 100 | < 100 |
| Cc1ccc(-c2noc([C@H]3C[C@@H]3F)n2)cc1NC(=O)c1cnn2cc(-c3c(C)nn(CC(C)(C)O)c3C)ccc12 [Example 144] | < 100 | < 100 |
| Cc1ccc(-c2noc([C@H]3C[C@@H]3F)n2)cc1NC(=O)c1cnn2ccc(-c3c(C)nn(C4COC4)c3C)cc12 [Example 145] | < 100 | < 100 |
| COCCn1nc(C)c(-c2ccn3ncc(C(=O)Nc4cc(-c5noc([C@H]6C[C@@H]6F)n5)ccc4C)c3c2)c1C [Example 146] | < 100 | < 100 |

| SMILES | EC50 (M-07e cells) [nM] | IC50 [1] [nM] |
| --- | --- | --- |
| Cc1ccc(-c2noc([C@H]3C[C@@H]3F)n2)cc1NC(=O)c1cnn2ccc(-c3ccc(F)cc3)cc12 [Example 148] | 100 to 1000 | 100 to 1000 |
| Cc1ccc(-c2noc([C@H]3C[C@@H]3F)n2)cc1NC(=O)c1cnn2cc(-c3ccc(F)cc3)ccc12 [Example 149] | < 100 | < 100 |
| Cc1ccc(-c2noc([C@H]3C[C@@H]3F)n2)cc1NC(=O)c1cnn2ccc(-c3cccnc3)cc12 [Example 150] | < 100 | < 100 |
| Cc1ccc(-c2noc([C@H]3C[C@@H]3F)n2)cc1NC(=O)c1cnn2cc(-c3cccnc3)ccc12 [Example 151] | < 100 | < 100 |
| Cc1ccc(-c2noc([C@H]3C[C@@H]3F)n2)cc1NC(=O)c1cnn2ccc(-c3c(C)nn(CC(C)(C)O)c3C)cc12 [Example 152] | < 100 | < 100 |
| COCCn1cc(-c2ccn3ncc(C(=O)Nc4cc(-c5noc([C@H]6C[C@@H]6F)n5)ccc4C)c3c2)cn1 [Example 153] | < 100 | < 100 |
| Cc1ccc(-c2noc([C@H]3C[C@@H]3F)n2)cc1NC(=O)c1cnn2ccc(-c3cncnc3)cc12 [Example 154] | < 100 | < 100 |
| Cc1ccc(-c2noc([C@H]3C[C@@H]3F)n2)cc1NC(=O)c1cnn2cc(-c3cncnc3)ccc12 [Example 155] | 100 to 1000 | 100 to 1000 |
| Cc1ccc(-c2noc([C@H]3C[C@@H]3F)n2)cc1NC(=O)c1cnn2ccc(-c3cnc(N(C)C)nc3)cc12 [Example 156] | < 100 | < 100 |
| Cc1ccc(-c2noc([C@H]3C[C@@H]3F)n2)cc1NC(=O)c1cnn2ccc(-c3cnc(C(F)(F)F)nc3)cc12 [Example 157] | 100 to 1000 | 100 to 1000 |
| Cc1ccc(-c2noc([C@H]3C[C@@H]3F)n2)cc1NC(=O)c1cnn2ccc(-c3cnc(C(C)(C)O)nc3)cc12 [Example 158] | < 100 | 100 to 1000 |
| Cc1ccc(-c2noc([C@H]3C[C@@H]3F)n2)cc1NC(=O)c1cnn2ccc(-c3cnc(NC4CC4)nc3)cc12 [Example 159] | < 100 | < 100 |
| Cc1ccc(-c2noc([C@H]3C[C@@H]3F)n2)cc1NC(=O)c1cnn2ccc(-c3cnc(C4CC4)nc3)cc12 [Example 160] | < 100 | < 100 |
| Cc1ccc(-c2noc([C@H]3C[C@@H]3F)n2)cc1NC(=O)c1cnn2ccc(-c3c(C)n[nH]c3C)cc12 [Example 161] | < 100 | < 100 |
| Cc1ccc(-c2noc([C@H]3C[C@@H]3F)n2)cc1NC(=O)c1cnn2ccc(-c3c(C)nn(CCN4CCOCC4)c3C)cc12 [Example 162] | < 100 | < 100 |
| Cc1ncc(-c2ccn3ncc(C(=O)Nc4cc(-c5noc([C@H]6C[C@@H]6F)n5)ccc4C)c3c2)cn1 [Example 163] | < 100 | < 100 |
| Cc1ccc(-c2noc([C@H]3C[C@@H]3F)n2)cc1NC(=O)c1cnn2cc(F)c(-c3c(C)nn(CC(C)(C)O)c3C)cc12 [Example 164] | 100 to 1000 | 100 to 1000 |
| Cc1ccc(-c2noc([C@H]3C[C@@H]3F)n2)cc1NC(=O)c1cnn2cc(Cl)c(-c3c(C)nn(CC(C)(C)O)c3C)cc12 [Example 165] | 100 to 1000 | > 1000 |
| Cc1ccc(-c2noc([C@H]3C[C@@H]3F)n2)cc1NC(=O)c1cnn2cc(F)c(-c3c(C)nn(C(F)F)c3C)cc12 [Example 166] | 100 to 1000 | > 1000 |
| Cc1ccc(-c2noc([C@H]3C[C@@H]3F)n2)cc1NC(=O)c1cnn2ccc(C3CC4(C3)CC(F)(F)C4)cc12 [Example 167-1] | < 100 | < 100 |
| Cc1ccc(-c2noc([C@H]3C[C@@H]3F)n2)cc1NC(=O)c1cnn2cc(Cl)c(-c3c(C)nn(C(F)F)c3C)cc12 [Example 167] | > 1000 | > 1000 |
| Cc1ncc(-c2ccc3c(C(=O)Nc4cc(-c5noc([C@H]6C[C@@H]6F)n5)ccc4C)cnn3c2)c(C)n1 [Example 169] | 100 to 1000 | 100 to 1000 |
| Cc1nc(C)c(-c2ccn3ncc(C(=O)Nc4cc(-c5noc([C@H]6C[C@@H]6F)n5)ccc4C)c3c2)s1 [Example 170] | < 100 | < 100 |
| Cc1ccc(-c2noc([C@H]3C[C@@H]3F)n2)cc1NC(=O)c1cnn2ccc(-c3nnc(N)nc3C)cc12 [Example 171-1] | < 100 | < 100 |
